These results are taken from a melting point compilation (Tetko et al.).

`CS(=O)(=O)Nc1ccc(C(=O)O)c(O)c1` returned a melting point of 227 to 229 °C. `O=C(CC1SC(N2CCCCC2)=NC1=O)Nc1cccc(C(=O)O)c1` (stereo not drawn) gave a melting point of 188 to 190 °C.

Compound `COC(=O)C(=O)C=C(C)OC` showed a melting point of 37 to 39 °C. In turn, `O=C1C(=O)N(CO)c2ccccc21` had a melting point of 157 to 159 °C. `CC(=O)Nc1ccc(Br)cc1N` had a melting point of 155 to 157 °C. `O=C(O)c1cccc([N+](=O)[O-])c1N1CCOCC1` yielded a melting point of 196 to 198 °C. For the compound `CC(C)(C)c1ccc(-c2cc(N)on2)cc1`, the melting point lay within 148 to 150 °C. Compound `COC(=O)C[C@H](NC(=O)OCC1c2ccccc2-c2ccccc21)C(=O)O` yielded a melting point of 115 to 117 °C. `CCCS(=O)(=O)Nc1ccccc1C(C)NC` (stereo not drawn) showed a melting point of 58 to 60 °C. `O=C(O)c1cc2ccc(F)cc2[nH]1` came in with a melting point of 227 to 229 °C. The compound `CCN(CC)S(=O)(=O)c1ccc(N2CCOCC2)c(C(=O)O)c1` gave a melting point of 149 to 151 °C. For `O=C(O)C1CCN(c2ccccc2[N+](=O)[O-])CC1` the value was 158 to 160 °C; for `O=C(O)CCNC(=O)N1CCc2ccccc2C1`, 144 to 146 °C; for `CN(c1ccccc1)S(=O)(=O)c1cc(C(=O)O)ccc1Br`, 204 to 206 °C.

Compound `O=C(O)C=Cc1ccnc2ccccc12` displayed a melting point of 256 to 258 °C. In turn, `CNc1cnnc2ccccc12` came in with a melting point of 232 to 234 °C. Regarding `CC1CCCCN1c1cc(C(=O)O)ccn1` (stereo not drawn), the melting point fell in the range of 164 to 166 °C. In turn, `O=C(O)c1ccc(N/N=C/c2cccc(F)c2)cc1` yielded a melting point of 229 to 231 °C. The compound `COC(=O)c1cc(Br)cc(N)c1Cl` yielded a melting point of 73 to 75 °C. With `CC(C)NC(=O)c1cn[nH]c1N`, the melting point was in the range of 179 to 181 °C. As for `CC(C)(C)OC(=O)N1CCN(CC#N)CC1`, the melting point lay in the range of 79 to 81 °C. `O=C1OC(O)C(Br)=C1Br` (stereo not drawn) had a melting point of 122 to 124 °C. For `O=c1cc(CO)nc2ccc(Br)cn12` the value was 204 to 206 °C; for `CC(C1CC1)N(C)C(=O)c1ccc[nH]c1=O` (stereo not drawn), 187 to 189 °C; for `CCc1ncsc1C(=O)O`, 193 to 195 °C. For `Cc1cc2n(n1)CCC(=O)N2` the value was 221 to 223 °C; for `Cc1cc(C=O)ccc1[N+](=O)[O-]`, 65 to 67 °C; for `O=[N+]([O-])c1ccc(Br)c(S(=O)(=O)Cl)c1`, 86 to 88 °C. In turn, `CCCOc1cn(-c2ccccc2)nc1C(=O)O` gave a melting point of 119 to 121 °C. For `NNC(=O)c1cccc2ncccc12` the value was 130 to 132 °C; for `O=C(O)CCCS(=O)c1ccc(Br)cc1` (stereo not drawn), 121 to 123 °C; for `O=C(Cn1cnnn1)N1CCNCC1`, 143 to 145 °C. In the case of `Cn1ncc(C(=O)O)c1Br`, the melting point was 202 to 204 °C.

Regarding `O=c1[nH]ccc2cc[nH]c12`, the melting point lay within 279 to 281 °C. The compound `Cc1c(C(=O)O)nnn1-c1cccc(Br)c1` had a melting point of 184 to 186 °C. Compound `COc1ccc(C(=O)O)c(Br)c1` displayed a melting point of 189 to 191 °C. For `NC(c1ccc(Cl)cc1)c1ccc(C(F)(F)F)cc1` (stereo not drawn) the value was 58 to 60 °C; for `O=C(O)CCNc1ccccc1[N+](=O)[O-]`, 144 to 146 °C. `O=C(O)c1ccc(S)c(Cl)c1` registered a melting point of 219 to 221 °C. Compound `CCOc1ccc(C#N)cn1` yielded a melting point of 97 to 99 °C. For `COc1ccccc1OCC(=O)Nc1cccc(N)c1`, the melting point was in the range of 104 to 106 °C. For the compound `CS(=O)(=O)c1cccc(N)c1`, the melting point lay within 49 to 51 °C. Turning to `CC(C)(CO)Nc1ccc(Br)cn1`, the melting point was 103 to 105 °C. In turn, `CCOC(=O)/C(C#N)=C\Nc1cc(F)ccc1F` returned a melting point of 164 to 166 °C. For `CC(O)c1nc2ccc(Cl)cc2n1C` (stereo not drawn) the value was 149 to 151 °C; for `Cc1ccc(C(=O)N(C)c2ccc(O)cc2)cc1`, 115 to 117 °C; for `O=C(O)c1ccc2nccnc2c1`, 233 to 235 °C.

The compound `Clc1cc[nH]n1` registered a melting point of 68 to 70 °C. Turning to `CS(=O)(=O)C(Br)C(=O)c1ccccc1` (stereo not drawn), the melting point lay within 90 to 92 °C.

For the compound `OCc1ccc(O)c(F)c1`, the melting point fell in the range of 81 to 83 °C. The compound `CC(=O)N1CCC(C(=O)O)C1` (stereo not drawn) returned a melting point of 145 to 147 °C. Regarding `O=c1ccccn1CCOc1ccc(Br)cc1`, the melting point is 111 to 113 °C. Regarding `CCOCc1nnc(N)o1`, the melting point lay within 118 to 120 °C. The compound `C#CCNC(=O)Nc1ccc(C(C)=O)cc1` returned a melting point of 169 to 171 °C.

Take `COc1ccc(C(=O)c2ccccc2Cl)c(OC)c1`: the melting point lay within 61 to 63 °C. For `Cc1cc(C)cc(-n2[nH]c(-c3ccco3)cc2=N)c1` the value was 125 to 127 °C; for `Nc1cccc(-c2ccc3ccccc3c2)n1`, 124 to 126 °C; for `OCCn1nccc1C1CCNCC1`, 126 to 128 °C. `O=C(O)Cc1csc(-c2ccoc2)n1` registered a melting point of 128 to 130 °C.

As for `Cc1cccc(C)c1NS(=O)(=O)c1ccc(N)cc1`, the melting point was 212 to 214 °C. Take `O=C(O)c1ccc(-n2ccnn2)cc1`: the melting point lay in the range of 279 to 281 °C. For `CCC1SC(N)=NC1=O` (stereo not drawn) the value was 188 to 190 °C. Compound `CC(C)(C)OC(=O)N1C(C(=O)O)CC2CCCCC21` (stereo not drawn) came in with a melting point of 133 to 135 °C. For `Cn1cc2c(cc1=O)CCN2` the value was 204 to 206 °C; for `O=C(O)CNC(c1ccccc1)C(F)(F)F` (stereo not drawn), 191 to 193 °C. For `Nn1cnc2ccc(Br)cc2c1=O` the value was 230 to 232 °C; for `COC(=O)C1CCCN1C(=O)c1ccc([N+](=O)[O-])s1` (stereo not drawn), 119 to 121 °C; for `O=C(O)CCC(=O)N1CCOCC1`, 61 to 65 °C. In turn, `O=C(O)C1CCCN1c1ncc(C(F)(F)F)cc1Cl` (stereo not drawn) came in with a melting point of 99 to 101 °C. As for `OCC1NCCc2ccccc21` (stereo not drawn), the melting point was in the range of 71 to 73 °C. For `NNc1nc(-c2cccnc2)no1` the value was 169 to 171 °C; for `NC(=O)Cc1nc2ccccc2s1`, 167 to 169 °C.

The compound `Nc1cc(S(=O)(=O)NC2CC2)ccc1F` returned a melting point of 101 to 103 °C. For `NS(=O)(=O)c1ccc(NCC(=O)O)cc1` the value was 239 to 241 °C; for `O=Cc1c(Cl)c2ccccc2oc1=O`, 113 to 115 °C; for `CC(C)NC(=O)C(C)Cl` (stereo not drawn), 89 to 91 °C. For `COc1ccc(Oc2ccc(N)cn2)cc1` the value was 95 to 97 °C; for `CC(NS(=O)(=O)Cc1ccccc1)C(=O)O` (stereo not drawn), 119 to 121 °C. `Nc1cc(S(=O)(=O)NC2CC2)ccc1O`: the melting point was 119 to 121 °C. `O=C(O)c1cccc(OCc2cccc(Cl)c2)c1`: the melting point fell in the range of 144 to 146 °C.

With `O=C(O)CCCCCNS(=O)(=O)c1ccc2c(c1)OCCO2`, the melting point lay within 86 to 90 °C. For the compound `Nc1ccc(C2CC2)nn1`, the melting point was in the range of 135 to 137 °C. Regarding `NS(=O)(=O)c1ccc(CNC(=O)OCC(F)(F)F)cc1`, the melting point lay in the range of 150 to 152 °C. Take `N#Cc1ccc(CO)cc1`: the melting point is 39 to 43 °C. For `CC(C)c1nnc(CCC(=O)O)o1` the value was 84 to 86 °C; for `Cn1ncc(Br)c(Br)c1=O`, 114 to 116 °C. The compound `COc1ccc(NC(=O)OCC(F)(F)F)cn1` yielded a melting point of 86 to 88 °C. `N#CCOc1ccc(CBr)cc1` yielded a melting point of 74 to 76 °C. As for `CN1C(=O)CC(O)C1=O` (stereo not drawn), the melting point was in the range of 82 to 87 °C.

In turn, `O=C1CCc2cc(S(=O)(=O)Cl)ccc2N1` returned a melting point of 205 to 207 °C. For `Cc1nn(C)c(C)c1C(=O)C(N)=O` the value was 182 to 184 °C. Take `O=Cc1cnc(-c2ccccn2)s1`: the melting point fell in the range of 149 to 151 °C. Take `COc1ccc(C(=O)NCC(=O)O)cc1`: the melting point was 165 to 167 °C.

Consider `CC(C)CNCC(O)c1ccc(F)cc1` (stereo not drawn), for which the melting point was 56 to 58 °C. Compound `OC1CC2CCCC(C1)N2Cc1ccccc1` (stereo not drawn) came in with a melting point of 57 to 59 °C. `CC(C)(C)OC(=O)Nc1ccc(N)cn1` showed a melting point of 157 to 159 °C. Compound `Cc1ccc(-n2cc(S(=O)(=O)Cl)cn2)cc1` returned a melting point of 92 to 94 °C. For the compound `C#CCNC(=O)CCl`, the melting point was in the range of 63 to 67 °C. For `CC(=O)N1CCC(S(=O)(=O)Cl)CC1` the value was 95 to 97 °C; for `NS(=O)(=O)C1CCCOC1` (stereo not drawn), 96 to 98 °C; for `CC(C)(C)OC(=O)N1CCC(CC(=O)O)(C(=O)O)C1` (stereo not drawn), 180 to 182 °C. With `Nn1c(S)nnc1Cc1ccccc1F`, the melting point fell in the range of 158 to 161 °C. For `COCCc1nnc(-c2cccc(C(=O)O)c2)o1` the value was 156 to 158 °C. The compound `NCc1nc2cc(Cl)ccc2s1` gave a melting point of 68 to 70 °C. Regarding `CC1CCN(C(=O)c2ccc(Cl)nc2)CC1`, the melting point lay within 69 to 71 °C.

Consider `O=C1CSc2ccncc2N1`, for which the melting point lay in the range of 203 to 205 °C. For `CC(C)(C)c1ccc(C(C)(C)C(=O)O)cc1` the value was 165 to 167 °C; for `NS(=O)(=O)c1ccc(Br)c(C(=O)O)c1`, 231 to 233 °C. `O=C1CNC(=O)N1Cc1ccc(Cl)c([N+](=O)[O-])c1`: the melting point lay within 183 to 185 °C. The compound `Cc1nc(Cl)nc(N(C)C)n1` displayed a melting point of 81 to 83 °C. On to `O=S(=O)(Cl)c1ccc2c(c1)S(=O)(=O)NC=N2`, for which the melting point lay within 247 to 249 °C. For `NC(=O)c1cccc(CS)n1` the value was 61 to 63 °C; for `COC(=O)c1cc2c(nc1N)CCCC2`, 126 to 128 °C; for `Cc1ccc2c(c1)C(=O)CCC2`, 28 to 30 °C. Turning to `CCOc1cc(F)ccc1[N+](=O)[O-]`, the melting point lay within 31 to 33 °C. Consider `O=S(=O)(Cl)c1csc(-c2ccccc2)n1`, for which the melting point lay within 86 to 88 °C. For `CC(C)(C)Nc1ccc(C(N)=NO)nc1` the value was 139 to 141 °C; for `Nc1cccc(N2CCCCC2=O)c1`, 144 to 146 °C.

In turn, `O=C(O)c1ncn(-c2ccccc2)n1` had a melting point of 179 to 181 °C. Regarding `CC(C)(C)NC(=O)N1CCCc2c(C(=O)O)cccc21`, the melting point lay in the range of 134 to 136 °C.

In turn, `COC(=O)CNc1ccc(Br)cn1` yielded a melting point of 105 to 107 °C. Consider `CCCCOc1ccc(-c2cc(N)on2)cc1`, for which the melting point lay within 112 to 114 °C.

As to `CC(NC(=O)c1cccc(Cl)c1Cl)C(=O)O` (stereo not drawn), the melting point is 152 to 154 °C.

For orientation: melting point means the temperature of the solid-liquid transition.
